Laboratory results taken from US9765037B2, “Compositions and methods for treating toxoplasmosis, cryptosporidiosis, and other apicomplexan protozoan related diseases” (University of Washington Through its Center for …, priority 2010, dated 2017).
≈ marks a conversion by molar mass, not a printed value. Where two headings read alike, the source gives them in different places.

Key:
PfCDPK1 = PfCDPK1 (Plasmodium falciparum (isolate 3D7), UniProt P62344); experiment: biochemical
PfCDPK4 = PfCDPK4 (Plasmodium falciparum (isolate 3D7), UniProt Q8IBS5); experiment: biochemical
[1] = Solubility in buffers of various pH; type: physicochemical; conditions: buffer
glioma derived (SF539) = experiment: Growth inhibition of human cell line SF539
[2] = system: human promyelocytic leukemia (HL-60); experiment: Growth inhibition of human cell line HL-60
[3] = system: human lymphocyte (CRL8155); experiment: Growth inhibition of human cell line CRL8155
[4] = system: colorectal carcinoma (HC 2998); experiment: Growth inhibition of human cell line HC 2998
HckKD = HckKD (Homo sapiens (Human), UniProt P08631); experiment: Tyrosine kinase IC50, HckKD; type: biochemical; conditions: Table 9
TgCDPK1 = TgCDPK1 (Toxoplasma gondii, UniProt Q9BJF5); type: biochemical
CpCDPK1 = CpCDPK1 (Cryptosporidium parvum (strain Iowa II), UniProt A3FQ16); experiment: biochemical; type: biochemical
[5] = Blood levels after oral gavage dosing of mice (LC-MS); conditions: mouse, in vivo, po
[6] = pH 6.5, aqueous buffer, read-out: Experimental Solubility pH 6.5
[7] = Table 8, read-out: IC50 (μM) CpCDPK1

Sequence of HckKD (P08631 262-515): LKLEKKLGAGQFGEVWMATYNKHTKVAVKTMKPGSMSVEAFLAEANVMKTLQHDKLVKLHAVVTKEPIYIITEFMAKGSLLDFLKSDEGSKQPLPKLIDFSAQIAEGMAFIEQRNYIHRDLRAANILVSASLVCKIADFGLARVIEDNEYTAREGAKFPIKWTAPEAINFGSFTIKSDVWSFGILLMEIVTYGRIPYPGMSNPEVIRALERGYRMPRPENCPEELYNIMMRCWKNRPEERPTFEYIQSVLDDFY
Sequence of CpCDPK1 (A3FQ16 1-538): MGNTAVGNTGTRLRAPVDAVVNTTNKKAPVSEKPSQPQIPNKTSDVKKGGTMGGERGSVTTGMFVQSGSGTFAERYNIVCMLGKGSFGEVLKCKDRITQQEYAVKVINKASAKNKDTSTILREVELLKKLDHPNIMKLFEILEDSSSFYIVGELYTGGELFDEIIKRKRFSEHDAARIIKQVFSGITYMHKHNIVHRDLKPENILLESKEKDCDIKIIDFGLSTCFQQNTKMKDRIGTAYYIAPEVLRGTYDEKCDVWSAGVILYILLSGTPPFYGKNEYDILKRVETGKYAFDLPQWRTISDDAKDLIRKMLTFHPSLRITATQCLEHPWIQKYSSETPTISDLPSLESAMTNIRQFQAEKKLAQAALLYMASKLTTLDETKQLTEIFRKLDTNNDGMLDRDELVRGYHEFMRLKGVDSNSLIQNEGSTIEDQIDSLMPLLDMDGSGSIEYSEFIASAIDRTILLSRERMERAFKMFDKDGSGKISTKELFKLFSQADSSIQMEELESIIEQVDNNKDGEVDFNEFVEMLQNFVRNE
Sequence of TgCDPK1 (Q9BJF5 1-507): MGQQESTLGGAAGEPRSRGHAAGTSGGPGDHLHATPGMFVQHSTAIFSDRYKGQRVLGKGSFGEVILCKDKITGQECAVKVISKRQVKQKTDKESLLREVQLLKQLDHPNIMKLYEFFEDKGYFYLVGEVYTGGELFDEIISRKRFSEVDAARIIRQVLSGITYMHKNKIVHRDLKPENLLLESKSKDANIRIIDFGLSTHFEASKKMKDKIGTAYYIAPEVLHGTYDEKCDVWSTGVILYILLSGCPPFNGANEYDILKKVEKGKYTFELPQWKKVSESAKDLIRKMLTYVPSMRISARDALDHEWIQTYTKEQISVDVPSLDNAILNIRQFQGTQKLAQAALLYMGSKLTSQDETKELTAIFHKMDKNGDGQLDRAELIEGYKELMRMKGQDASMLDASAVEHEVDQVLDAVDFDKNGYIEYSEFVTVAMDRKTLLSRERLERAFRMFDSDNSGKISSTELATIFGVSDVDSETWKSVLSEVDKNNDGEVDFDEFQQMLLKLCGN

Compound | EC50 (PfCDPK1) [nM] | EC50 (PfCDPK4) [nM] | solubility [1, 6] [µM] | Cell Toxicity SF539, % at 10 μM (glioma derived (SF539)) [% at 10 μM] | Cell Toxicity HL60, % at 10 μM [2] | Cell Toxicity CRL8155, % at 10 μM [3] | Cell Toxicity HCC2998, % at 10 μM [4] [% at 10 μM] | other results
CC(C)(C)n1nc(-c2ccc3ccccc3c2)c2c(N)ncnc21 [Compound 2, 1-tert-butyl-3-(naphthalen-2-yl)-1H-pyrazolo[3,4-d]pyrimidin-4-amine] | 1250 | 480 | 2.4 (≈ 0.762 µg/mL) |  |  |  |  | solubility ([1]; aqueous buffer, pH 2.0, read-out: Experimental Solubility pH 2.0): 43 µM (≈ 13.6 µg/mL); solubility ([1]; pH 7.4, aqueous buffer, read-out: Experimental Solubility pH 7.4): 1.5 µM (≈ 0.476 µg/mL); Cell Toxicity SF539, % at 25 μM (glioma derived (SF539)): <30% at 25 μM; Cell Toxicity HL60, % at 25 μM [2]: <30% at 25 μM;; Cell Toxicity HL60, % at 30 μM [2]: <30% at 30 μM; Cell Toxicity CRL8155, % at 25 μM [3]: 37% at 25 μM;; Cell Toxicity CRL8155, % at 30 μM [3]: <30% at 30 μM; Cell Toxicity HCC2998, % at 25 μM [4]: <30% at 25 μM
CC(C)n1nc(Cc2cccc3ccccc23)c2c(N)ncnc21 [Compound 3, 1-isopropyl-3-(naphthalen-1-ylmethyl)-1H-pyrazolo[3,4-d]pyrimidin-4-amine] |  |  |  | <30 | <30% at 10 μM | <30% at 10 μM | <30 | IC50 (HckKD): 1.38 µM
Nc1ncnc2c1c(Cc1cccc3ccccc13)nn2C1CCNCC1 [Compound 5g, 3-(naphthalen-1-ylmethyl)-1-(piperidin-4-yl)-1H-pyrazolo[3,4-d]pyrimidin-4-amine] |  |  |  | <30 | <30% at 10 μM | <30% at 10 μM | <30 | IC50 (TgCDPK1; read-out: TgCDPK1 IC50): 0.059 µM; IC50 (CpCDPK1; read-out: IC50 (μM) CpCDPK1): 0.056 µM
Nc1ncnc2c1c(Cc1cccc3ccccc13)nn2CCC1CCNCC1 [Compound 5i, 3-(naphthalen-1-ylmethyl)-1-(2-(piperidin-4-yl)ethyl)-1H-pyrazolo[3,4-d]pyrimidin-4-amine] |  | 603 |  | <30 | <30% at 10 μM; | <30% at 10 μM; | <30 | IC50 (TgCDPK1; read-out: TgCDPK1 IC50): 0.052 µM; IC50 (CpCDPK1; read-out: CpCDPK1 IC50): 0.034 µM; Cell Toxicity HL60, % at 30 μM [2]: <30% at 30 μM; Cell Toxicity CRL8155, % at 30 μM [3]: <30% at 30 μM
CCN1CCC(Cn2nc(Cc3cccc4ccccc34)c3c(N)ncnc32)CC1 [Compound 5n, 1-((1-ethylpiperidin-4-yl)methyl)-3-(naphthalen-1-ylmethyl)-1H-pyrazolo[3,4-d]pyrimidin-4-amine] |  |  |  | <30 | <30% at 10 μM | <30% at 10 μM | <30 | 
CS(=O)(=O)N1CCC(n2nc(Cc3cccc4ccccc34)c3c(N)ncnc32)CC1 [Compound 5p, 1-(1-(methylsulfonyl)piperidin-4-yl)-3-(naphthalen-1-ylmethyl)-1H-pyrazolo[3,4-d]pyrimidin-4-amine] |  |  |  |  |  |  |  | Cell Toxicity SF539, % at 25 μM (glioma derived (SF539)): <30% at 25 μM; Cell Toxicity HL60, % at 25 μM [2]: <30% at 25 μM; Cell Toxicity CRL8155, % at 25 μM [3]: <30% at 25 μM; Cell Toxicity HCC2998, % at 25 μM [4]: <30% at 25 μM
CC(C)n1nc(-c2ccc(Cl)cc2)c2c(N)ncnc21 [Compound 7a, 3-(4-chlorophenyl)-1-isopropyl-1H-pyrazolo[3,4-d]pyrimidin-4-amine] |  |  | 45 (≈ 12.9 µg/mL) |  |  |  |  | IC50 (TgCDPK1; read-out: IC50 (μM) TgCDPK1): 0.018 µM; IC50 (CpCDPK1; [7]): 0.216 µM; IC50 (CpCDPK1; read-out: CpCDPK1 IC50): 0.22 µM
CC(C)n1nc(-c2ccc(Cl)c(Cl)c2)c2c(N)ncnc21 [Compound 7c, 3-(3,4-dichlorophenyl)-1-isopropyl-1H-pyrazolo[3,4-d]pyrimidin-4-amine] |  |  |  |  |  |  |  | Cell Toxicity SF539, % at 25 μM (glioma derived (SF539)): 31% at 25 μM; Cell Toxicity HL60, % at 25 μM [2]: 51% at 25 μM; Cell Toxicity CRL8155, % at 25 μM [3]: 54% at 25 μM; Cell Toxicity HCC2998, % at 25 μM [4]: <30% at 25 μM
CC(C)n1nc(-c2ccc3ccccc3c2)c2c(N)ncnc21 [Compound 7p, 1-isopropyl-3-(naphthalen-2-yl)-1H-pyrazolo[3,4-d]pyrimidin-4-amine] | 380 | 142 |  | 54 | 35% at 10 μM |  |  | Cell Toxicity SF539, % at 25 μM (glioma derived (SF539)): 84% at 25 μM;; GI50 (glioma derived (SF539); read-out: GI50 (μM) SF539, human cell line SF539): > 10 µM; Cell Toxicity HL60, % at 25 μM [2]: 50% at 25 μM;; GI50 ([2]; read-out: GI50 (μM) HL60, human cell line HL60): > 10 µM; Cell Toxicity CRL8155, % at 25 μM [3]: 46% at 25 μM; GI50 ([3]; read-out: GI50 (μM) CRL8155, human cell line CRL8155): > 10 µM; Cell Toxicity HCC2998, % at 25 μM [4]: <30% at 25 μM; GI50 ([4]; read-out: GI50 (μM) HCC2998, human cell line HCC2998): ~10 µM
CCOc1ccc2cc(-c3nn(C(C)C)c4ncnc(N)c34)ccc2c1 [Compound 7r, 3-(6-ethoxynaphthalen-2-yl)-1-isopropyl-1H-pyrazolo[3,4-d]pyrimidin-4-amine] | 1290 | 429 | 12 (≈ 4.17 µg/mL) | <30 | <30% at 10 μM | <30% at 10 μM | <30 | IC50 (CpCDPK1; read-out: CpCDPK1 IC50): 0.012 µM; IC50 (HckKD): 0.218 µM
CC(C)n1nc(-c2cnc3ccccc3c2)c2c(N)ncnc21 [Compound 7t, 1-isopropyl-3-(quinolin-3-yl)-1H-pyrazolo[3,4-d]pyrimidin-4-amine] | 1360 | 169 |  | <30 | <30% at 10 μM | <30% at 10 μM | <30 | 
CCOc1ccc2cc(-c3nc(C(C)C)n4ccnc(N)c34)ccc2c1 [Compound 10, 1-(6-ethoxynaphthalen-2-yl)-3-isopropylimidazo[1,5-a]pyrazin-8-amine] | 380 | 328 | 29 (≈ 10 µg/mL) |  |  |  |  | IC50 (TgCDPK1; read-out: IC50 (μM) TgCDPK1): 0.078 µM; IC50 (CpCDPK1; [7]): 0.0336 µM; AUC [5]: 112 µM·h; Cmax [5]: 26000 nM; Tmax [5]: 2.5 h
CC(C)Oc1ccc2cc(-c3nn(C(C)C)c4ncnc(N)c34)ccc2c1 [Compound 11, 3-(6-isopropoxynaphthalen-2-yl)-1-isopropyl-1H-pyrazolo[3,4-d]pyrimidin-4-amine] | 373 | 549 |  | <30 | <30% at 10 μM | <30% at 10 μM | <30 | IC50 (HckKD): 0.541 µM
CCCOc1ccc2cc(-c3nn(C(C)C)c4ncnc(N)c34)ccc2c1 [Compound 12, 1-isopropyl-3-(6-propoxynaphthalen-2-yl)-1H-pyrazolo[3,4-d]pyrimidin-4-amine] | 659 | 526 |  | <30 | <30% at 10 μM | <30% at 10 μM | <30 | IC50 (HckKD): 0.244 µM
CC(C)Oc1ccc2cc(-c3nn(CC4CCNCC4)c4ncnc(N)c34)ccc2c1 [Compound 32, 3-(6-isopropoxynaphthalen-2-yl)-1-(piperidin-4-ylmethyl)-1H-pyrazolo[3,4-d]pyrimidin-4-amine] | 365 | 55.4 |  |  |  |  |  | IC50 (HckKD): > 10 µM
Cc1cccc2[nH]c(-c3nc(C(C)(C)C)n4ccnc(N)c34)cc12 [Compound 83] | 1080 | 371 | 36 (≈ 11.5 µg/mL) |  | 37% at 10 μM | <30% at 10 μM |  | Cell Toxicity HL60, % at 30 μM [2]: 38% at 30 μM; Cell Toxicity CRL8155, % at 30 μM [3]: 46% at 30 μM
CC(C)(C)c1nc(-c2ccc3ccccc3c2)c2c(N)nccn12 [Compound 84] | 61.3 | 55.1 | 26 (≈ 8.23 µg/mL) |  | <30% at 10 μM | <30% at 10 μM |  | Cell Toxicity HL60, % at 30 μM [2]: 50% at 30 μM; Cell Toxicity CRL8155, % at 30 μM [3]: 48% at 30 μM
Nc1ncnc2c1c(-c1ccc3cc(O)ccc3c1)nn2CC1CCNCC1 [Compound 119] | 76.9 | 7.3 | 50 (≈ 18.7 µg/mL) |  | <30% at 10 μM; | <30% at 10 μM |  | Cell Toxicity HL60, % at 30 μM [2]: <30% at 30 μM; Cell Toxicity CRL8155, % at 30 μM [3]: <30% at 30 μM
Cn1ncc2cc(-c3nn(CC4CCNCC4)c4ncnc(N)c34)ccc21 [Compound 121] | 702 | 146 | 43 (≈ 15.6 µg/mL) |  | <30% at 10 μM | <30% at 10 μM |  | AUC [5]: 0.445 µM·h; Cmax [5]: 190 nM; Tmax [5]: 1.5 h
CC(C)COc1ccc2cc(-c3nn(CC4CCN(C)CC4)c4ncnc(N)c34)ccc2c1 [Compound 124] | 119 | 101 | 41 (≈ 18.2 µg/mL) |  |  |  |  | AUC [5]: 6.65 µM·h; Cmax [5]: 1840 nM; Tmax [5]: 3 h
Nc1ncnc2c1c(-c1ccc3ccccc3c1)nn2CC1CCNCC1 [Compound 147, 3-(naphthalen-2-yl)-1-(piperidin-4-ylmethyl)-1H-pyrazolo[3,4-d]pyrimidin-4-amine] | 66.8 | 17.2 | 79 (≈ 28.3 µg/mL) |  | 33% at 10 μM |  |  | Cell Toxicity HL60, % at 30 μM [2]: 60% at 30 μM;; Cell Toxicity CRL8155, % at 30 μM [3]: <30% at 30 μM
